Assay results published in ChEMBL document CHEMBL1201862, “PubChem BioAssay data set” (2004).
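Interpolation was linear, between the two tested concentrations surrounding the appropriate level; five concentrations were tested over 48 hours in 96-well plates. The concentration for 50% growth inhibition is given as GI50.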 Activity calls are given as the source filed them. No stated cut-off is given here; in the data, active = GI50 up to about 1.1 µM and inactive = higher.

Tests used:
Assay in all cases: NCI anticancer screen, dose series, 48 h
[1] = tested on: RXF 631
[2] = tested on: SF-268
[3] = tested on: KM12
[4] = tested on: COLO 205
[5] = tested on: HCC 2998
[6] = tested on: LXFL 529
[7] = tested on: M14
[8] = tested on: EKVX
[9] = tested on: HOP-62
[10] = tested on: HL-60
[11] = tested on: HOP-92
[12] = tested on: OVCAR-3
[13] = tested on: CCRF-CEM
[14] = tested on: OVCAR-5
[15] = tested on: HCT-15
[16] = tested on: ACHN
[17] = tested on: RPMI-8226
[18] = tested on: IGROV-1
[19] = tested on: NCI-H23
[20] = tested on: DMS-273
[21] = tested on: OVCAR-4
[22] = tested on: M19-MEL
[23] = tested on: SN12C
[24] = tested on: OVCAR-8
[25] = tested on: KM-20L2
[26] = tested on: SW-620
[27] = tested on: SR
[28] = tested on: CAKI-1
[29] = tested on: RXF 393
[30] = tested on: DLD-1
[31] = tested on: K562
[32] = tested on: HT-29
[33] = tested on: UACC-62
[34] = tested on: U-251
[35] = tested on: SNB-75
[36] = tested on: SNB-78
[37] = tested on: HOP-18
[38] = tested on: NCI-H226
[39] = tested on: UACC-257
[40] = tested on: 786-0
[41] = tested on: A498
[42] = tested on: XF498
[43] = tested on: DMS-114
[44] = tested on: SNB-19
[45] = tested on: MOLT-4
[46] = tested on: HCT-116
[47] = tested on: A549
[48] = tested on: Malme-3M
[49] = tested on: SK-MEL-2
[50] = tested on: NCI-H460
[51] = tested on: SK-MEL-28
[52] = tested on: UO-31
[53] = tested on: TK-10
[54] = tested on: SK-OV-3
[55] = tested on: LOX IMVI
[56] = tested on: SK-MEL-5
[57] = tested on: SF-295
[58] = tested on: NCI-H522
[59] = tested on: SF-539

Structure (SMILES): O=C(Nc1nc2ccc([N+](=O)[O-])cc2s1)C(=O)C(C(=O)c1ccncc1)C1OC(=O)c2ccccc21 (centres undefined)
- GI50 [1]: > 100 µM (inactive)
- GI50 [2]: > 100 µM (inactive)
- GI50 [3]: > 100 µM (inactive)
- GI50 [4]: > 100 µM (inactive)
- GI50 [5]: > 100 µM (inactive)
- GI50 [6]: > 100 µM (inactive)
- GI50 [7]: > 100 µM (inactive)
- GI50 [8]: 92.5 µM (inactive)
- GI50 [9]: > 100 µM (inactive)
- GI50 [10]: > 100 µM (inactive)
- GI50 [11]: > 100 µM (inactive)
- GI50 [12]: > 100 µM (inactive)
- GI50 [13]: > 100 µM (inactive)
- GI50 [14]: > 100 µM (inactive)
- GI50 [15]: > 100 µM
- GI50 [16]: > 100 µM (inactive)
- GI50 [17]: > 100 µM (inactive)
- GI50 [18]: > 100 µM (inactive)
- GI50 [19]: > 100 µM (inactive)
- GI50 [20]: > 100 µM (inactive)
- GI50 [21]: > 100 µM (inactive)
- GI50 [22]: > 100 µM (inactive)
- GI50 [23]: > 100 µM (inactive)
- GI50 [24]: > 100 µM (inactive)
- GI50 [25]: > 100 µM (inactive)
- GI50 [26]: > 100 µM (inactive)
- GI50 [27]: > 100 µM (inactive)
- GI50 [28]: > 100 µM (inactive)
- GI50 [29]: > 100 µM (inactive)
- GI50 [30]: > 100 µM (inactive)
- GI50 [31]: > 100 µM (inactive)
- GI50 [32]: > 100 µM (inactive)
- GI50 [33]: > 100 µM (inactive)
- GI50 [34]: > 100 µM (inactive)
- GI50 [35]: 33.9 µM (inactive)
- GI50 [36]: > 100 µM (inactive)
- GI50 [37]: 42.7 µM (inactive)
- GI50 [38]: > 100 µM (inactive)
- GI50 [39]: > 100 µM (inactive)
- GI50 [40]: > 100 µM (inactive)
- GI50 [41]: 48.6 µM (inactive)
- GI50 [42]: > 100 µM (inactive)
- GI50 [43]: > 100 µM (inactive)
- GI50 [44]: > 100 µM (inactive)
- GI50 [45]: > 100 µM (inactive)
- GI50 [46]: > 100 µM (inactive)
- GI50 [47]: > 100 µM (inactive)
- GI50 [48]: > 100 µM (inactive)

Structure (SMILES): CCc1cccc(C)c1NC(=O)NS(=O)(=O)c1ccc(C)cc1
- GI50 [49]: > 100 µM (inactive)
- GI50 [50]: > 100 µM (inactive)
- GI50 [1]: > 100 µM (inactive)
- GI50 [2]: > 100 µM (inactive)
- GI50 [3]: > 100 µM (inactive)
- GI50 [4]: > 100 µM (inactive)
- GI50 [5]: > 100 µM (inactive)
- GI50 [51]: > 100 µM (inactive)
- GI50 [6]: > 100 µM (inactive)
- GI50 [7]: > 100 µM (inactive)
- GI50 [52]: > 100 µM (inactive)
- GI50 [8]: > 100 µM (inactive)
- GI50 [9]: > 100 µM (inactive)
- GI50 [10]: > 100 µM (inactive)
- GI50 [53]: > 100 µM (inactive)
- GI50 [11]: > 100 µM (inactive)
- GI50 [12]: > 100 µM (inactive)
- GI50 [13]: > 100 µM (inactive)
- GI50 [14]: > 100 µM (inactive)
- GI50 [15]: > 100 µM
- GI50 [16]: > 100 µM (inactive)
- GI50 [54]: > 100 µM (inactive)
- GI50 [55]: > 100 µM (inactive)
- GI50 [56]: > 100 µM (inactive)
- GI50 [17]: > 100 µM (inactive)
- GI50 [18]: > 100 µM (inactive)
- GI50 [19]: > 100 µM (inactive)
- GI50 [20]: > 100 µM (inactive)
- GI50 [21]: > 100 µM (inactive)
- GI50 [22]: > 100 µM (inactive)
- GI50 [23]: > 100 µM (inactive)
- GI50 [57]: > 100 µM (inactive)
- GI50 [24]: > 100 µM (inactive)
- GI50 [25]: > 100 µM (inactive)
- GI50 [26]: > 100 µM (inactive)
- GI50 [28]: > 100 µM (inactive)
- GI50 [29]: > 100 µM (inactive)
- GI50 [30]: > 100 µM (inactive)
- GI50 [31]: > 100 µM (inactive)
- GI50 [33]: > 100 µM (inactive)
- GI50 [34]: > 100 µM (inactive)
- GI50 [35]: 35.2 µM (inactive)
- GI50 [36]: > 100 µM (inactive)
- GI50 [37]: > 100 µM (inactive)
- GI50 [39]: > 100 µM (inactive)
- GI50 [58]: > 100 µM (inactive)
- GI50 [40]: > 100 µM (inactive)
- GI50 [41]: > 100 µM (inactive)
- GI50 [42]: > 100 µM (inactive)
- GI50 [43]: > 100 µM (inactive)
- GI50 [59]: > 100 µM (inactive)
- GI50 [44]: > 100 µM (inactive)
- GI50 [45]: > 100 µM (inactive)
- GI50 [46]: > 100 µM (inactive)
- GI50 [47]: > 100 µM (inactive)
- GI50 [48]: > 100 µM (inactive)
